Assay [1] deals with Poly [ADP-ribose] polymerase 1 (Homo sapiens) (UniProt P09874). Description: Induction of PARP1 degradation in triple-negative human MDA-MB-231 cells assessed as fold change in PARP1 protein expression at 2.5 uM incubated for 48 hrs by Western blot analysis relative to control. The class given is cell-based.
The target is the same in assay [2]. Description: Induction of PARP1 degradation in triple negative human MDA-MB-231 cells assessed as fold change in PARP1 protein expression at 5 uM incubated for 48 hrs by Western blot analysis relative to control. The class given is cell-based.
The target is the same in assay [3]. Description: Induction of PARP1 degradation in triple-negative human MDA-MB-231 cells assessed as fold change in PARP1 protein expression at 10 uM incubated for 48 hrs by Western blot analysis relative to control. Type of assay: cell-based.
Assay [4] deals with MDA-MB-231. Description: Cytotoxicity against triple-negative human MDA-MB-231 cells assessed as reduction in cell viability measured after 48 hrs by CCK8 assay. The following applies: MDA-MB-231, 48 h. The class given is functional, cell-based.
Assay [5] relates to MDA-MB-231. Description: Cytotoxicity against human MDA-MB-231 cells assessed as reduction in cell viability measured after 96 hrs by CCK8 assay. Type of assay: functional, cell-based. The conditions noted are these: MDA-MB-231, 96 h.
For assay [6], the system named is MDA-MB-231. Description: Induction of endoplasmic reticulum stress in human MDA-MB-231 cells assessed as upregulation of CHOP protein expression at 5 uM incubated for 48 to 72 hrs by western blot analysis. The class given is functional, cell-based. The conditions noted are these: time 48-72 hrs.
The subject of assay [7] is MDA-MB-231. Description: Induction of endoplasmic reticulum stress in human MDA-MB-231 cells assessed as upregulation of XBP-1s protein expression at 5 uM incubated for 48 to 72 hrs by western blot analysis. Type of assay: functional, cell-based. The conditions noted are these: time 48-72 hrs.
Assay [8] deals with MDA-MB-231. Description: Induction of autophagy in human MDA-MB-231 cells assessed as upregulation of LC3B protein expression at 5 uM incubated for 48 to 72 hrs by western blot analysis. The conditions noted are these: time 48-72 hrs. Type of assay: functional, cell-based.

Structures are written as SMILES. Active and inactive are the calls of the source. The rule behind the calls is not given here. Where only a bound is given, the exact number is not on record here.

In ChEMBL document CHEMBL4765403, “Augmentation of the antitumor effects of PARP inhibitors in triple-negative breast cancer via degradation by hydrophobic tagging modulation” (Eur J Med Chem, 2020) one finds fold change (FC), IC50 and Activity data, which are given here for 21 compounds.

Poly [ADP-ribose] polymerase 1 (Homo sapiens), sequence (P09874 whole entry): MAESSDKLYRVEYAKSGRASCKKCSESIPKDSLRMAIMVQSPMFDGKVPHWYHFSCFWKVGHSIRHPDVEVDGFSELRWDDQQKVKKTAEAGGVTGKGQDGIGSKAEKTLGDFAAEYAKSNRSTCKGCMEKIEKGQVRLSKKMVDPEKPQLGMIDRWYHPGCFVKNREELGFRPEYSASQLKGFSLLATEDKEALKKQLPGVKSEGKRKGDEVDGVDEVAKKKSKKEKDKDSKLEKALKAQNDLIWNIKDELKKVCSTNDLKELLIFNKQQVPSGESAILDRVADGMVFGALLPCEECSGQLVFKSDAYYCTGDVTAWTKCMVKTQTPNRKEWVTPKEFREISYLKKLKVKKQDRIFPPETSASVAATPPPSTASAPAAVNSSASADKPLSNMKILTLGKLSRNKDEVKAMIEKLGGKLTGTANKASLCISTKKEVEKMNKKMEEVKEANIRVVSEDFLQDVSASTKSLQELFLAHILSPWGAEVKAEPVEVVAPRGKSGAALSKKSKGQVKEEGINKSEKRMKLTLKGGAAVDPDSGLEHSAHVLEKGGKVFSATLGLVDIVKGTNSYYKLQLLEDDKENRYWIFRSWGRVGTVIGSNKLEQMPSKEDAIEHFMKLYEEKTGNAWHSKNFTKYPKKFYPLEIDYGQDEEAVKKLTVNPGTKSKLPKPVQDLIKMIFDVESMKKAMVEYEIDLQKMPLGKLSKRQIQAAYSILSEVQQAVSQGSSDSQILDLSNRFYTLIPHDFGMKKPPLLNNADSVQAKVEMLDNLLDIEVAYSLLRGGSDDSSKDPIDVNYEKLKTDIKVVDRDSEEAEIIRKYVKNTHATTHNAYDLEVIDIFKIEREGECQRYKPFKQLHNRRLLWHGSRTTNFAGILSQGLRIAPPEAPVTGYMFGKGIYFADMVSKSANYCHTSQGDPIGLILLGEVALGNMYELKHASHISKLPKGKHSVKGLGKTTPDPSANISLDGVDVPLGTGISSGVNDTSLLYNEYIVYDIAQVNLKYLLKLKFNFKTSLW

Consider `O=C(CC1c2ccccc2-c2ccccc21)NCCCCN1CCN(C(=O)c2cc(Cc3n[nH]c(=O)c4ccccc34)ccc2F)CC1`, for which the fold change (FC) in assay [1], in assay [2] and in assay [3] was 0.5 each time. In the assay with MDA-MB-231 [4], the IC50 is more than 50 µM.

Regarding `O=C(NCCN1CCN(C(=O)c2cc(Cc3n[nH]c(=O)c4ccccc34)ccc2F)CC1)C(c1ccccc1)c1ccccc1`, the fold change (FC) in assay [1] was 1.3; in assay [2], 1.1; in assay [3], 1.3.

As for `O=C(c1cc(Cc2n[nH]c(=O)c3ccccc23)ccc1F)N1CCN(C(=O)C(C2CCCCC2)C2CCCCC2)CC1`, the fold change (FC) in assay [1] was 0.6; in assay [2], 0.7; in assay [3] it was 0.7.

As to `O=C(NCCCCN1CCN(C(=O)c2cc(Cc3n[nH]c(=O)c4ccccc34)ccc2F)CC1)C(C1CCCCC1)C1CCCCC1`, the values for the fold change (FC) in assay [1], in assay [2] and in assay [3] were 1.1, 0.8 and 1.2, respectively.

As to `O=C(NCCCCCCN1CCN(C(=O)c2cc(Cc3n[nH]c(=O)c4ccccc34)ccc2F)CC1)C(C1CCCCC1)C1CCCCC1`, the results for the fold change (FC) in assay [1], in assay [2] and in assay [3] were 0.9, 0.8 and 0.3, respectively. Moreover, the IC50 in the assay with MDA-MB-231 [4] is more than 50 µM.

On to `O=C(CC1c2ccccc2-c2ccccc21)NCCN1CCN(C(=O)c2cc(Cc3n[nH]c(=O)c4ccccc34)ccc2F)CC1`, for which the fold change (FC) was found to be 0.4 in assay [1], 0.3 in assay [2] and 0.4 in assay [3]. In addition, the IC50 with MDA-MB-231 [4] was determined as 26.2 µM.

Turning to `O=C(NCCCCCCN1CCN(C(=O)c2cc(Cc3n[nH]c(=O)c4ccccc34)ccc2F)CC1)C(c1ccccc1)c1ccccc1`, the results for the fold change (FC) in assay [1], in assay [2] and in assay [3] were 1.4, 1.5 and 1.3, respectively.

Take `CC(C)Cc1ccc([C@H](C)C(=O)NCCCCN2CCN(C(=O)c3cc(Cc4n[nH]c(=O)c5ccccc45)ccc3F)CC2)cc1`: the figures for the fold change (FC) in assay [1], in assay [2] and in assay [3] were 0.9, 1.2 and 1.7, respectively.

With `O=C(CC12CC3CC(CC(C3)C1)C2)NCCN1CCN(C(=O)c2cc(Cc3n[nH]c(=O)c4ccccc34)ccc2F)CC1`, the fold change (FC) in assay [1] was found to be 1.1; in assay [2], 1.2; in assay [3], 1.3.

For `O=C(NCCN1CCN(C(=O)c2cc(Cc3n[nH]c(=O)c4ccccc34)ccc2F)CC1)C(C1CCCCC1)C1CCCCC1`, the fold change (FC) in assay [1], in assay [2] and in assay [3] was 0.9 in each case.

Turning to `O=C(NCCCCN1CCN(C(=O)c2cc(Cc3n[nH]c(=O)c4ccccc34)ccc2F)CC1)C(c1ccccc1)c1ccccc1`, the values for the fold change (FC) in assay [1], in assay [2] and in assay [3] were 1.4, 1.6 and 1.2, respectively.

In the case of `O=C(CC12CC3CC(CC(C3)C1)C2)N1CCN(C(=O)c2cc(Cc3n[nH]c(=O)c4ccccc34)ccc2F)CC1`, the fold change (FC) in assay [1] came out at 0.9; in assay [2], 0.7; in assay [3], 0.8.

Turning to `O=C(CC1c2ccccc2-c2ccccc21)NCCCCCCN1CCN(C(=O)c2cc(Cc3n[nH]c(=O)c4ccccc34)ccc2F)CC1`, the fold change (FC) in assay [1] worked out at 0.5; in assay [2], 0.5; in assay [3], 0.4.

Regarding `O=C(c1cc(Cc2n[nH]c(=O)c3ccccc23)ccc1F)N1CCN(C(=O)C(c2ccccc2)c2ccccc2)CC1`, the figures for the fold change (FC) in assay [1], in assay [2] and in assay [3] were 1, 1 and 1.1, respectively.

As to `O=C(c1cc(Cc2n[nH]c(=O)c3ccccc23)ccc1F)N1CCN(C(=O)C2CC2)CC1` [OLAPARIB], in the assay with MDA-MB-231 [5], the IC50 is 32.4 µM. For the same compound, the result with MDA-MB-231 [6], with MDA-MB-231 [7] and in the assay with MDA-MB-231 [8] was inactive.

With `CC(C)Cc1ccc([C@H](C)C(=O)N2CCN(C(=O)c3cc(Cc4n[nH]c(=O)c5ccccc45)ccc3F)CC2)cc1`, the results for the fold change (FC) in assay [1], in assay [2] and in assay [3] were 0.8, 1 and 0.8, respectively.

`CC(C)Cc1ccc([C@H](C)C(=O)NCCCCCCN2CCN(C(=O)c3cc(Cc4n[nH]c(=O)c5ccccc45)ccc3F)CC2)cc1`: the fold change (FC) in assay [1] is 1.2; in assay [2], 0.7; in assay [3], 0.3. For the same compound, the IC50 with MDA-MB-231 [4] worked out at 15.9 µM.

As to `O=C(CC12CC3CC(CC(C3)C1)C2)NCCCCCCN1CCN(C(=O)c2cc(Cc3n[nH]c(=O)c4ccccc34)ccc2F)CC1`, the fold change (FC) is 0.9 in assay [1], 1.2 in assay [2] and 0.8 in assay [3].

For the compound `c1ccc2c(c1)Cc1ccccc1-2` [FLUORENE], the IC50 in the assay with MDA-MB-231 [4] is more than 50 µM.

`CC(C)Cc1ccc([C@H](C)C(=O)NCCN2CCN(C(=O)c3cc(Cc4n[nH]c(=O)c5ccccc45)ccc3F)CC2)cc1`: the fold change (FC) worked out at 0.9 in assay [1], 0.8 in assay [2] and 0.7 in assay [3].

On to `O=C(CC12CC3CC(CC(C3)C1)C2)NCCCCN1CCN(C(=O)c2cc(Cc3n[nH]c(=O)c4ccccc34)ccc2F)CC1`, for which the figures for the fold change (FC) in assay [1], in assay [2] and in assay [3] were 1.1, 1.2 and 1.1, respectively.
